According to ChEMBL document CHEMBL5241103, “Progress in the development of domain selective inhibitors of the bromo and extra terminal domain family (BET) proteins” (Eur J Med Chem, 2021):
pIC50, pKd, pKi: −log10 of the molar value. Values belong to the molecule of their own block, whether it stands above or below them.

Tests used:
[1] = target: T1, Bromodomain-containing protein 4 (Homo sapiens, UniProt O60885); assay: Binding affinity to human BRD4 BD2 assessed as inhibition constant incubated for 1 hr by competitive binding assay
Homo sapiens [2] = species: Homo sapiens; assay: Selectivity ratio of Ki for human BRD4 BD2 to Ki for BRD4 BD1
[3] = target: T1, Bromodomain-containing protein 4; assay: Binding affinity to human BRD4 BD1 assessed as inhibition constant incubated for 1 hr by competitive binding assay
[4] = target: Mitogen-activated protein kinase 14 (Homo sapiens, UniProt Q16539)
Mitogen-activated protein kinase 14, sequence (Q16539 whole entry): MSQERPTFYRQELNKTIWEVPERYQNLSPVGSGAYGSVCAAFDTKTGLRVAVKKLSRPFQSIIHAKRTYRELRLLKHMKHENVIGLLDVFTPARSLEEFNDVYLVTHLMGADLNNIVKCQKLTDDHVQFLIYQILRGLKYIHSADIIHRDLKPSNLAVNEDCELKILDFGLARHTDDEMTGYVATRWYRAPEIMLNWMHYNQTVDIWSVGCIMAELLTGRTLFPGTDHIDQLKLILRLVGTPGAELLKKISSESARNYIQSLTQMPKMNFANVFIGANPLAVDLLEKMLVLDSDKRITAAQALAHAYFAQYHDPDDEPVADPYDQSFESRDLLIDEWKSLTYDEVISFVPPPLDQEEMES
Description: Binding affinity to p38 alpha (unknown origin) assessed as dissociation constant by DiscoverX kinomescan method

Homo sapiens [5] = species: Homo sapiens; assay: Selectivity ratio of IC50 for BRD4 BD2 (unknown origin) to IC50 for BRD4 BD1 (unknown origin)
[6] = target: T1, Bromodomain-containing protein 4; assay: Inhibition of his 6 tagged BRD4 D1 (unknown origin) expressed in Escherichia coli BL21 (DE3) by fluorescence anisotropy assay
[7] = target: T2, Bromodomain-containing protein 2 (Homo sapiens, UniProt P25440); assay: Binding affinity to BDR2-BD1 (unknown origin) by TR-FRET assay
T2 sequence (P25440 whole entry): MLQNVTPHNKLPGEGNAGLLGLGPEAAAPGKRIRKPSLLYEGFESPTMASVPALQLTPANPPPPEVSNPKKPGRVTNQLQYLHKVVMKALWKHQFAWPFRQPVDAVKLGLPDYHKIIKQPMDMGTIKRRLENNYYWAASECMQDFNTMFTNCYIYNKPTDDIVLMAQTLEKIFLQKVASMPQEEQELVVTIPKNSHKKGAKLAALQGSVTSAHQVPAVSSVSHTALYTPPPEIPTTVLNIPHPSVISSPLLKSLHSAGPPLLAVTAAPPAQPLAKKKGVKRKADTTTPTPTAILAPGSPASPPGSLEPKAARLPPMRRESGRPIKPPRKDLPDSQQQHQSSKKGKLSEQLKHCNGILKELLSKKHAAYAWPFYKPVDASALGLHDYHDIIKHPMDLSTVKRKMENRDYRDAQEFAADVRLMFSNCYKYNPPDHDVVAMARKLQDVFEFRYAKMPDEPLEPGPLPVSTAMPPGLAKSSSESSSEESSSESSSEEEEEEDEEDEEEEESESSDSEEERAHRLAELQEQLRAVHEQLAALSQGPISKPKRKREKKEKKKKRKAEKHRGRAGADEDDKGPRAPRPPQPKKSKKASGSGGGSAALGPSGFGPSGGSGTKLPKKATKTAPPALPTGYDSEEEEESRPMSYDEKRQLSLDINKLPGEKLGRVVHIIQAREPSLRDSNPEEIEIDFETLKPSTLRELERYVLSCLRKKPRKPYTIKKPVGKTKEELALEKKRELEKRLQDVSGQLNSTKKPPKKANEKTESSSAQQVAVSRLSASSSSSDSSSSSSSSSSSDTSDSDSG

[8] = target: T2, Bromodomain-containing protein 2; assay: Binding affinity to BDR2- BD2 (unknown origin) by TR-FRET assay
Homo sapiens [9] = species: Homo sapiens; assay: Selectivity ratio of Kd for BRD2 BD1 (unknown origin) to Kd for BRD2 BD2 (unknown origin)
[10] = Inhibition of BRD BD1 (unknown origin) by alpha screen assay; set-up: species or system Homo sapiens
[11] = Inhibition of BRD BD2 (unknown origin) by alpha screen assay; set-up: species or system Homo sapiens
Homo sapiens [12] = species: Homo sapiens; assay: Selectivity ratio of IC50 for BRD BD1 (unknown origin) to IC50 for BRD BD2 (unknown origin)
Homo sapiens [13] = species: Homo sapiens; assay: Selectivity ratio of Kd for BRD4 BD1 (unknown origin) to Kd for BRD4 BD2 (unknown origin)

- pKi [1]: 6.14
- Ratio Ki (Homo sapiens [2]): 9
- pKi [3]: 7.11
Structure (SMILES): COc1ccc(NC(=O)c2ccc(NC3=C(C)C(=O)CC3)c(Cl)c2)cc1

- pKd [4]: 5.72
- Ratio IC50 (Homo sapiens [5]): 9
- pIC50 [6]: 6.89
Structure (SMILES): Cc1cc(C)cc(Oc2nccc(-c3c(-c4ccc(C(F)(F)F)cc4)ncn3C3CCN(CCN)CC3)n2)c1

- pKd [7]: 6.03
- pKd [8]: 7.85
- Ratio (Homo sapiens [9]): 67
Structure (SMILES): COC(=O)c1ccc(N[C@@H]2C[C@H](C)N(C(C)=O)c3ccc(-c4cccc(NC(C)=O)c4)cc32)cc1

- pIC50 [10]: 5.94
- pIC50 [11]: 7.70
- Ratio IC50 (Homo sapiens [12]): 40
Structure (SMILES): COc1cc(OC)c2c(=O)[nH]c(-c3cc(C)c(OCCN4CCCC4)c(C)c3)nc2c1

- pKd [7]: 6.31
- pKd [8]: 8.22
- Ratio (Homo sapiens [13]): 152
- Ratio (Homo sapiens [9]): 80
Structure (SMILES): CC(=O)N1c2ccc(-c3cc[nH]n3)cc2[C@H](Nc2ccc(C#N)cc2)C[C@@H]1C
